{
  "source": "ChEMBL document CHEMBL1145212",
  "about": "“Fluorinated diaryl sulfides as serotonin transporter ligands: synthesis, structure-activity relationship study, and in vivo evaluation of fluorine-18-labeled compounds as PET imaging agents” (J Med Chem, 2005)",
  "molecular_target": "Sodium-dependent serotonin transporter (Homo sapiens, UniProt P31645)",
  "sequence (P31645 whole entry)": "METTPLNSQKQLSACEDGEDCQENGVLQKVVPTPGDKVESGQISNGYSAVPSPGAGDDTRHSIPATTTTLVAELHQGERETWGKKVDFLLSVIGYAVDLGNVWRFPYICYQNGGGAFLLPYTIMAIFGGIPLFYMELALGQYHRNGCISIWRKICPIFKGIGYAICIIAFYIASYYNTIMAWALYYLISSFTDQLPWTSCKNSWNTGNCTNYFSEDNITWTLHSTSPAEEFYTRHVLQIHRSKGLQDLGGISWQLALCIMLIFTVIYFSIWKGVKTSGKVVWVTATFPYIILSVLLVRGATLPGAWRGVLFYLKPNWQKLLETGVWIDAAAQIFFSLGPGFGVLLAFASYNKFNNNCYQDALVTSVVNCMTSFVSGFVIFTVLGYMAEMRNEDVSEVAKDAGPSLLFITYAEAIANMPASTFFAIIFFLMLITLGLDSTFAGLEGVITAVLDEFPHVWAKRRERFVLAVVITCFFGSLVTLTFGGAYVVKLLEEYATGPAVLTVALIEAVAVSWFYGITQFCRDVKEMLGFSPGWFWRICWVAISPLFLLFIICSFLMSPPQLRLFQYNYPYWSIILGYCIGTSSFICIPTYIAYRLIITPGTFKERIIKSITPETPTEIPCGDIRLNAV",
  "assay": "In vitro displacement of [3H]paroxetine from human serotonin transporter expressed in HEK293 cells",
  "assay_type": "cell-based",
  "note": "pKi: −log10 of the molar value.",
  "data": [
    {"smiles": "CN(C)Cc1ccccc1Sc1ccc(C#N)cc1N", "note": "[DASB]", "values": [
      {"measurement": "pKi", "value": 8.95}
    ]}
  ]
}
